Laboratory results reported in paper PMC9138090, “Study on the Neuroprotective, Radical-Scavenging and MAO-B Inhibiting Properties of New Benzimidazole Arylhydrazones as Potential Multi-Target Drugs for the Treatment of Parkinson’s Disease” (Antioxidants, 2022).
“Also recorded” adds a separate entry of the source.

Tests used:
[1] = target: T1, human recombinant MAO-B (hMAO-B) enzyme (Homo sapiens, UniProt P27338); test: hMAO-B activity, Amplex UltraRed fluorometric method; format: biochemical; conditions: 1 µM
T1 construct: purchased Invitrogen, USA
T1 sequence (P27338 1-520): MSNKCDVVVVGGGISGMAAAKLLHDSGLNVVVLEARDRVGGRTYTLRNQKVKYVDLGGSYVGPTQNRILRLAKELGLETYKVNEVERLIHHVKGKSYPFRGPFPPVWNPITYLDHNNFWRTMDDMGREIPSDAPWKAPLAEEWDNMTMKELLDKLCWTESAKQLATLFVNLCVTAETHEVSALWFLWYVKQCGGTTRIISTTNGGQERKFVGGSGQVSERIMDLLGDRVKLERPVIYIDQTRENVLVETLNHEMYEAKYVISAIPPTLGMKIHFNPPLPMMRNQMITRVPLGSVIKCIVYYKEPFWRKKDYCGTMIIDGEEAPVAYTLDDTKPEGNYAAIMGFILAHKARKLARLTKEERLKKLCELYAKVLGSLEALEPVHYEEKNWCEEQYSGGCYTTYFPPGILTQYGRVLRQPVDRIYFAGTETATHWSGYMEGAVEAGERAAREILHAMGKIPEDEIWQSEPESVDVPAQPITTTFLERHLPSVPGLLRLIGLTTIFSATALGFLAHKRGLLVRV
Protocol: The effects of the test compounds on human recombinant MAO-B (hMAO-B) enzyme were studied by the Amplex UltraRed reagent (Sigma-Aldrich Chemie GmbH) fluorometric method with small modifications. The working solutions of the compounds, reagents, hMAO-B, and reaction buffers were prepared according to the producer’s instructions. The tyramine hydrochloride was used as a substrate. The reaction mixture contained a stock solution of Amplex Red (10 mM in dimethyl sulfoxide), the reaction buffer (0.05 M sodium phosphate) at pH 7.4, and the storage solution of horseradish peroxidase (10 U/mL). There were pure MAO-B working solutions in the reaction buffer and MAO-B working solution containing hydrogen peroxide as controls. The final concentration of the test compounds in the well was 1 μM. The compounds together with hMAO-B were embedded in a 96-well plate (8 wells for each compound), and then the plate was incubated for 30 min (dark, at 37 °C). Thereafter, the reaction was initiated by 50 μL Mix Solution: Amplex®Red reagent, horseradish peroxidase, and tyramine as an enzyme substrate in the reaction buffer. The fluorescence was measured every 30 min at 0, 30, 60, 90, 120, and 150 min), in dark, while shaking the reaction mixture at constant temperature of 37 °C. The fluorimetric measurements were assessed using a Synergy 2 Microplate Reader.
Monoamine oxidase B catalyzes dopamine metabolism and oxidation leading to the formation of reactive oxygen species and reactive quinones, which provoke dopamine neurotoxicity and neurodegeneration. In the next experiments, the compounds showing the best safety profile and the most promising neuroprotective activity (3d, 3e, 3h, 3i, 3m, 3n, 3p) were evaluated for their potential inhibitory activity on hMAOB. Selegiline and rasagiline as potent MAO-B inhibitors were used as standard compounds for comparison.

rat brain synaptosomes [2] = test: Synaptosomal viability (MTT), toxicity evaluation; format: cell-based; conditions: concentrations < 250 µM (1 to 250 µM tested)
Protocol: (§1) Synaptosomes were prepared from brains of adult male Wistar rats. The brains were homogenized in 10 volume of cold buffer 1, containing 5 mM HEPES and 0.32 M sucrose (pH = 7.4). The brain homogenate was centrifuged twice at 1000× g for 5 min at 4 °C. The supernatant was collected and centrifuged 3 times at 10,000× g for 20 min at 4 °C. The pellet was re-suspended in ice-cold buffer 1. The synaptosomes were isolated by using Percoll reagent to prepare the gradient. Synaptosomes were re-suspended and incubated in buffer 2, containing 290 mM NaCl, 0.95 mM MgCl2 × 6H2O, 10 mM KCl, 2.4 mM CaCl2 × H2O, 2.1 mM NaH2PO4, 44 mM HEPES, and 13 mM D-glucose. Incubations were performed in a 5% CO2 + 95% O2 atmosphere. The content of synaptosomal protein was determined according to the method of Lowry et al. using bovine serum albumin as a standard.
Synaptosomal viability was measured by (3-(4,5)-dimethylthiazol-2-yl)-2,5-diphenyl tetrazolium bromide)-test, described by Mungarro-Menchaca et al. The synaptosomes were incubated with the compounds and then treated with (3-(4,5)-dimethylthiazol-2-yl)-2,5-diphenyl tetrazolium bromide) solution (0.5 mg/mL) for 1 h at 37 °C. After incubation they were centrifuged at 15,000× g for 1 min. The formed formazan crystals were dissolved in DMSO (Dimethyl sulfoxide). The extinction was measured spectrophotometrically at λ = 580 nm.
The low toxicity and substantial neuroprotective properties shown by some of the potential drug candidates in human neuroblastoma SH-SY5Y cells directed the experimental work to be elaborated on a different cellular in vitro model using freshly isolated rat brain synaptosomes for the evaluation of the protective effects and toxicity of selected promising compounds [56]. The rat brain synaptosomes represent a terminal part of the axons and contain synaptic vesicles, mitochondria, lysosomes, parts of the cell membrane, neurotransmitters, which diffuse across the synaptic cleft. Besides the presynaptic membrane, a part of postsynaptic membrane with the postsynaptic density is often attached to the nerve ending. In their experiments, Student and Edwards examined the subcellular localization of the A and B forms of MAO in rat brain. […] The authors conclude from the data that MAO-B activity is, indeed, associated with synaptosomes and may be non-uniformly located among different populations of synaptic endings. The functional-metabolic status of the synaptosomes was evaluated by measuring the synaptosomal viability (MTT assay) and the levels of reduced gluthathione (GSH) (Figure 2). […] At the highest used concentration (250 µM) a relative decrease in the synaptosomal viability and the levels of reduced glutathione was observed.

rat brain synaptosomes [3] = test: GSH level in isolated synaptosomes, toxicity evaluation; format: cell-based; conditions: concentrations < 250 µM (1 to 250 µM tested)
Protocol: as §1
Following treatment with the tested compounds, the glutathione levels were determined using Ellman reagent (DTNB), which forms color complexes with the SH group at pH = 8, with maximum absorbance at 412 nm. The synaptosomes were centrifuged at 500× g for 1 min and the sediment was used to measure GSH level. The sediment was precipitated with 5% TCA, then centrifuged for 10 min at 4000× g and the GSH level in the supernatant was measured using DTNB spectrophotometrically at 412 nm. The biochemical parameters were determined by spectrophotometric methods using a Spectro UV-VIS Split spectrophotometer (LaboMed.Inc, Los Angeles, CA, USA).
The low toxicity and substantial neuroprotective properties shown by some of the potential drug candidates in human neuroblastoma SH-SY5Y cells directed the experimental work to be elaborated on a different cellular in vitro model using freshly isolated rat brain synaptosomes for the evaluation of the protective effects and toxicity of selected promising compounds [56]. The rat brain synaptosomes represent a terminal part of the axons and contain synaptic vesicles, mitochondria, lysosomes, parts of the cell membrane, neurotransmitters, which diffuse across the synaptic cleft. Besides the presynaptic membrane, a part of postsynaptic membrane with the postsynaptic density is often attached to the nerve ending. In their experiments, Student and Edwards examined the subcellular localization of the A and B forms of MAO in rat brain. […] The authors conclude from the data that MAO-B activity is, indeed, associated with synaptosomes and may be non-uniformly located among different populations of synaptic endings. The functional-metabolic status of the synaptosomes was evaluated by measuring the synaptosomal viability (MTT assay) and the levels of reduced gluthathione (GSH) (Figure 2). […]

Compound | inhibitory effect on hMAOB activity (in words) [1] | effect on rat brain synaptosomes viability (rat brain synaptosomes [2]) | melting point [°C] | effect on level of GSH in synaptosomes (rat brain synaptosomes [3])
COc1ccc(C=NNC(=O)CCn2c(=S)n(CCC(=O)NN=Cc3ccc(OC)cc3O)c3ccccc32)c(O)c1 [3m, 3,3′-(2-Thioxo-1H-benzo[d]imidazole-1,3(2H)-diyl)bis(N′-(2-hydroxy-4-methoxybenzylidene)propanehydrazide)] | statistically significant MAO-B inhibitory effects | did not significantly reduce | 247 to 249 | did not change
O=C(CCn1c(=S)n(CCC(=O)NN=Cc2cccc(O)c2O)c2ccccc21)NN=Cc1cccc(O)c1O [3h, 3,3′-(2-Thioxo-1H-benzo[d]imidazole-1,3(2H)-diyl)bis(N′-(2,3-dihydroxybenzylidene)propanehydrazide)] | statistically significant MAO-B inhibitory effects; also recorded: most potent with an hMAO-B inhibitory activity similar to selegiline and rasagiline | did not significantly reduce | 246 to 248 | did not significantly reduce; also recorded: did not change
O=C(CCn1c(=S)n(CCC(=O)NN=Cc2ccccc2O)c2ccccc21)NN=Cc1ccccc1O [3e, 3,3′-(2-Thioxo-1H-benzo[d]imidazole-1,3(2H)-diyl)bis(N′-(2-hydroxybenzylidene)propanehydrazide)] | statistically significant MAO-B inhibitory effects | did not significantly reduce | 272 to 273 | did not change
O=C(CCn1c(=S)n(CCC(=O)NN=Cc2ccc(O)cc2O)c2ccccc21)NN=Cc1ccc(O)cc1O [3i, 3,3′-(2-Thioxo-1H-benzo[d]imidazole-1,3(2H)-diyl)bis(N′-(2,4-dihydroxybenzylidene)propanehydrazide)] | statistically significant MAO-B inhibitory effects | did not significantly reduce | 254 to 256 | did not significantly reduce; also recorded: did not change
